Reference: patent publication US20220143003A1, “COMPOSITIONS AND METHODS TO TREAT NON-ALCOHOLIC FATTY LIVER DISEASES (NAFLD)” (Coherus Biosciences, Inc., priority 2018, published 2022)

Assays:
Type in all cases: in vivo, male C57BL/6JRj mice
DIO-NASH mice [1] = assay: Plasma total cholesterol (TC) at termination; details: for Plasma total cholesterol (TC) at termination: group mean
Description: (§1) For plasma biochemistry, tail blood was drawn directly through the capillary of a Microvette/Vacuette of the right dimension and anticoagulant and mixed by inversion 5 times. Blood was placed at 4° C. until centrifugation at 3000×g for 10 minutes at 4° C. The plasma supernatants were transferred to new tubes and immediately frozen on dry ice and stored at −80° C. until analysis.
(§2) Mouse insulin was measured in single determinations using the MSD platform (Meso Scale Diagnostics).
Plasma total cholesterol (TC) at termination (mmol/L). Values expressed as mean of n=12-14+SEM.

DIO-NASH mice [2] = assay: Plasma urea at termination; details: for Plasma urea at termination: group mean
Description: as §1, §2
Plasma urea at termination (mmol/L). Values expressed as mean of n=12-14+SEM.

DIO-NASH mice [3] = assay: Absolute and relative liver weight at termination; details: for Absolute liver weight at termination / Liver weight at termination, relative (% of body weight): group mean
Description: Animals were terminated after 12 weeks of treatment in a non-fasting state. Animals were put under isoflurane anesthesia, the abdominal cavity was opened, and cardiac blood was drawn directly into a Vacuette of the right dimension and anticoagulant and mixed by inversion 5 times. Blood was placed at 4° C. until centrifugation at 3000×g for 10 minutes at 4° C. The plasma supernatants were transferred to new tubes and immediately frozen on dry ice and stored at −80° C. Upon necropsy, the whole liver was collected and weighed. The liver was sampled for histological and biochemical analyses as described below.
Absolute liver weight at termination (g). Values expressed as mean of n=12-14+SEM.
Liver weight at termination in relative (% of body weight) values. Values expressed as mean of n=12-14+SEM.

DIO-NASH mice [4] = assay: Liver total cholesterol (TC) at termination; details: group mean
Description: The liver post-biopsy for histological analyses was removed by dissection from the left lateral lobe, fixated in 4% formalin for 20-24 h, and subsequently embedded in paraffin. Liver biopsies for liver triglycerides and total cholesterol were dissected from the medial lobe, snap frozen in liquid nitrogen, and stored at −80° C., while liver biopsies for hydroxyproline were dissected from the caudal lobe (the entire lobe), snap frozen in liquid nitrogen and stored at −80° C. Finally, a liver sample for RNA isolation and gene expression analysis was dissected from the left lateral lobe, snap frozen in liquid nitrogen, and stored at −80° C. until processing.
For liver TG and TC quantification, samples were homogenized, and TG and TC extracted in 5% NP-40 by heating twice to 90° C. The samples were centrifuged, and the TG and TC content measured in the supernatant, using commercial kits (Roche Diagnostics) on the Cobas c501 autoanalyzer according to the manufacturer's instructions.
Relative (mg/g of liver) liver total cholesterol (TC) at termination. Values expressed as mean of n=12-14+SEM.
Total (mg/liver) liver total cholesterol (TC) at termination. Values expressed as mean of […]+SEM.

DIO-NASH mice [5] = assay: Liver steatosis (liver lipid) quantified by morphometry on HE slides; details: terminal, group mean
Description: For Hematoxylin & Eosin (HE) staining, slides were incubated in Mayer's Hematoxylin, washed in tap water, stained in Eosin Y solution, […], mounted with Pertex and allowed to dry before scanning.
Quantitative assessment of steatosis is evaluated as follows. Steatosis is quantified on H&E stained slides by image analysis using the Visiomorph software (Visiopharm, Denmark). Visiomorph protocols are designed to analyze the virtual slides in two steps: 1. Crude detection of tissue at low magnification (1× objective). 2. Detection of steatosis (pink) and tissue (blue) at high magnification (20× objective). The quantitative estimate of steatosis is calculated as an area fraction (AF) according to the following formula:
Terminal liver steatosis (i.e. liver lipid) was quantified by morphometry. Relative liver steatosis is denoted in % fractional area. Values expressed as mean of n=12-14+SEM.
Total liver steatosis is denoted in milligrams (% fractional area multiplied with liver weight). Values expressed as mean of n=12-14+SEM.

DIO-NASH mice [6] = assay: Liver Collagen 1A1 (Col1a1) IHC quantified by morphometry; details: for Relative terminal liver Col1a1 by morphometry / Total terminal Col1a1 (% fractional area multiplied with liver weight): group mean
Description: After surgery, the animals were evaluated daily on general health and body weight. […] The pre-biopsy was analyzed to evaluate liver steatosis score and fibrosis stage for study inclusion as outlined by Kleiner et al. (2005) (Table 1). In addition, liver Collagen 1a1 (Col1a1) quantified by morphometry was used to perform a stratified randomization of NASH-affected animals into study groups (see description of histopathological stains and analyses below).
Protein markers of fibrosis (Col1a1), fibrogenesis (α-SMA) and inflammation (Gal-3) were assessed by immunohistochemistry. α-SMA and collagen type I increase in regulation of quiescent hepatic stellate cell activation into myofibroblast-like cells where activated hepatic stellate cells are the main collagen producing cells in the liver (Carpino et al 2005, Hou and Syn 2018) whereas Gal-3 is involved in mediating inflammatory response and considered as a macrophage activation marker (Sciacchitano et al, 2018). For morphometric quantification of liver Col1a1 (using antibody from Southern Biotech, Cat. #1310-01), alpha-smooth muscle actin (α-SMA; using antibody from Abcam, Cat. #Ab124964) and Galectin-3 (using antibody from Biolegend, Cat. #125402), IHC staining was performed using standard procedures. Briefly, after antigen retrieval and blocking of endogenous peroxidase activity, slides were incubated with primary antibody. For all IHC stains, the primary antibody was detected using a polymeric HRP-linker antibody conjugate and visualized using DAB as chromogen. Finally, sections were counterstained in hematoxylin and cover-slipped before scanning.
Quantitative assessment of immunoreactivity is evaluated as follows. IHC-positive staining is quantified by image analysis using the Visiomorph software (Visiopharm, Denmark). Visiomorph protocols are designed to analyze the virtual slides in two steps: 1. Crude detection of tissue at low magnification (1× objective). The liver capsule is excluded. 2. Detection of IHC-positive staining (e.g. green; collagen 1 IHC), tissue (e.g. red) and fat (e.g. pink) at high magnification (10×objective). The quantitative estimate of IHC-positive staining is calculated as an area fraction (AF) according to the following formula:
Liver fibrosis (Col1a1%) at baseline. Values expressed as mean of n=12-14+SEM.
Terminal liver Collagen 1A1 (Col1a1) was quantified by morphometry. Relative Terminal liver Col1a1 (% fractional area) is expressed as mean of n=12-14+SEM.
Total terminal Col1a1 values are in milligrams (% fractional area multiplied with liver weight) and expressed as mean of n=12-14+SEM.

[7] = CHS-131 High dose (alone or combined)
[8] = DIO-NASH mice, compared to DIO mice administered vehicle only

In the case of `O=S(=O)(Nc1cc(Cl)c(Oc2cnc3ccccc3c2)c(Cl)c1)c1ccc(Cl)cc1Cl` [CHS-131], the “Plasma TC, effect in words” value (DIO-NASH mice [1]; DIO-NASH mice, 12 weeks of treatment, summary of data) is reported as “reduced”, the “Decrease of plasma cholesterol” value (DIO-NASH mice [1]; DIO-NASH mice, compared to DIO mice administered vehicle only, significant, not in a dose response manner) is reported as ~12% and the “Plasma total cholesterol (TC) at termination” value (from here on “Plasma total cholesterol (TC)”) (DIO-NASH mice [1]; [7]) is reported as 6.38 mmol/L. The “Plasma total cholesterol (TC)” value (DIO-NASH mice [1]; CHS-131 Low dose) was 6.45 mmol/L, the “Hemodilution, assessed by urea, effect in words” value (DIO-NASH mice [2]; [8]) was “No difference” and the “Plasma urea at termination” value (DIO-NASH mice [2]; [7]) was 7.12 mmol/L. For the same compound, the “Plasma urea at termination” value (DIO-NASH mice [2]; CHS-131 Low dose) was 7.4 mmol/L, the “Relative liver weight, effect in words” value (DIO-NASH mice [3]; [8]) was “No difference” and the “Absolute liver weight at termination” value (DIO-NASH mice [3]; [7]) was 3.14 g. The “Liver weight at termination, relative (% of body weight)” value (DIO-NASH mice [3]; [7]) was 8.15 % of body weight, the “Absolute liver weight at termination” value (DIO-NASH mice [3]; CHS-131 Low dose) was 3.21 g and the “Liver weight at termination, relative (% of body weight)” value (DIO-NASH mice [3]; CHS-131 Low dose) was 8.4 % of body weight. For the same compound, the “Relative liver total cholesterol (TC) at termination” value (“Relative liver total cholesterol” below) (DIO-NASH mice [4]; [7]) was 12.3 mg/g of liver, the “Total liver total cholesterol (TC) at termination” value (shortened to “Total liver total cholesterol (TC)”) (DIO-NASH mice [4]; [7]) was 39.2 mg/liver and the “Relative liver total cholesterol” value (DIO-NASH mice [4]; CHS-131 Low dose) was 12.4 mg/g of liver. The “Total liver total cholesterol (TC)” value (DIO-NASH mice [4]; CHS-131 Low dose) was 39.6 mg/liver, the “Relative liver steatosis (liver lipid) by morphometry” value (from here on “Relative liver steatosis”) (DIO-NASH mice [5]; [7]) was 23.1 % fractional area and the “Total liver steatosis (% fractional area multiplied with liver weight)” value (DIO-NASH mice [5]; [7]) was 758 milligrams. For the same compound, the “Relative liver steatosis” value (DIO-NASH mice [5]; CHS-131 Low dose) was 26.4 % fractional area, the “Total liver steatosis (% fractional area multiplied with liver weight)” value (DIO-NASH mice [5]; CHS-131 Low dose) was 826 milligrams and the “Decrease of terminal Collagen 1a1 (marker of fibrosis)” value (DIO-NASH mice [6]; DIO-NASH mice, compared to vehicle alone, trend) was 15%. For the same compound, the “Relative terminal liver Col1a1 by morphometry” value (“Relative terminal liver Col1a1” for short) (DIO-NASH mice [6]; [7]) was 6.77 % fractional area, the “Total terminal Col1a1 (% fractional area multiplied with liver weight)” value (DIO-NASH mice [6]; [7]) was 220 milligrams and the “Relative terminal liver Col1a1” value (DIO-NASH mice [6]; CHS-131 Low dose) was 6.64 % fractional area. The “Total terminal Col1a1 (% fractional area multiplied with liver weight)” value (DIO-NASH mice [6]; CHS-131 Low dose) was 213 milligrams.

For `OC[C@H]1O[C@@H](c2ccc(Cl)c(Cc3ccc(O[C@H]4CCOC4)cc3)c2)[C@H](O)[C@@H](O)[C@@H]1O` [Empagliflozin, reference compound], the “Plasma total cholesterol (TC)” value (DIO-NASH mice [1]; [7]) was 7.62 mmol/L, the “Plasma urea at termination” value (DIO-NASH mice [2]; [7]) was 6.77 mmol/L and the “Absolute liver weight at termination” value (DIO-NASH mice [3]; [7]) was 3.37 g. The “Liver weight at termination, relative (% of body weight)” value (DIO-NASH mice [3]; [7]) was 8.48 % of body weight, the “Relative liver total cholesterol” value (DIO-NASH mice [4]; [7]) was 12.6 mg/g of liver and the “Total liver total cholesterol (TC)” value (DIO-NASH mice [4]; [7]) was 43.2 mg/liver. For the same compound, the “Relative liver steatosis” value (DIO-NASH mice [5]; [7]) was 27.2 % fractional area, the “Total liver steatosis (% fractional area multiplied with liver weight)” value (DIO-NASH mice [5]; [7]) was 923 milligrams and the “Relative terminal liver Col1a1” value (DIO-NASH mice [6]; [7]) was 7.31 % fractional area. The “Total terminal Col1a1 (% fractional area multiplied with liver weight)” value (DIO-NASH mice [6]; [7]) was 250 milligrams.

With `CSc1ccc(C(=O)/C=C/c2cc(C)c(OC(C)(C)C(=O)O)c(C)c2)cc1` [Elafibranor, reference compound] the “Plasma total cholesterol (TC)” value (DIO-NASH mice [1]; [7]) was 5.75 mmol/L, the “Plasma urea at termination” value (DIO-NASH mice [2]; [7]) was 8.01 mmol/L and the “Absolute liver weight at termination” value (DIO-NASH mice [3]; [7]) was 4.2 g. The “Liver weight at termination, relative (% of body weight)” value (DIO-NASH mice [3]; [7]) was 13.1 % of body weight, the “Relative liver total cholesterol” value (DIO-NASH mice [4]; [7]) was 8.87 mg/g of liver and the “Total liver total cholesterol (TC)” value (DIO-NASH mice [4]; [7]) was 38.3 mg/liver. The “Relative liver steatosis” value (DIO-NASH mice [5]; [7]) was 7.21 % fractional area, the “Total liver steatosis (% fractional area multiplied with liver weight)” value (DIO-NASH mice [5]; [7]) was 322 milligrams and the “Relative terminal liver Col1a1” value (DIO-NASH mice [6]; [7]) was 6.27 % fractional area. For the same compound, the “Total terminal Col1a1 (% fractional area multiplied with liver weight)” value (DIO-NASH mice [6]; [7]) was 270 milligrams.
